# Like-named read-outs stand apart in the source and are kept apart here.
# How the values were obtained:
# A549 = A549 photocytotoxicity (entries inside Table B cells); type: cell-based; conditions: A549 named inside the cell; concentration not given
# [1] = tested on: human colic adenocarcinoma cell line HT29; test: HT29 cell survival (MTT assay) after 24 h incubation, with or without light irradiation; conditions: for Photocytotoxicity HT 29, concentration giving 50%: 50% effect; for cytotoxic for HT29 (in words): without light, remark of the inventors
# Description: HT29 cells were cultivated in Dulbecco's MEM supplemented with 10% fetal calf serum (FCS). Cells from log-phase culture were seeded in 24-microwell plates (1 mL-5×10^4 cells/well) and kept at 37° C. in a water-jacketed incubator for 2 days under an air/CO2 atmosphere (5% CO2). Tested compounds, in DMSO solution, were added under the minimum volume (5 μL) to reach a concentration ranging from 0.1 to 10 μg/mL. Controls cells received 5 μL of DMSO free of dye. Plates were incubated 24 h, then medium was removed and the cells were washed twice with phosphate buffered saline (PBS) before addition of fresh medium free of drug and irradiation with visible light using a home made “light box” giving a fluence of 3.8 mW/cm^2 on the whole visible spectrum. Irradiation with red light was carried out using the same device fitted with an orange filter (0% T at 520 nm and 80% T at 590 nm) leading to a fluence of 2 mW/cm^2.
# Plates were reincubated for 3 days before evaluation of the cell survival using the MTT assay (T. Mosmann, “Rapid calorimetric assay for cellular growth and survival. Application to proliferation assays”. J. Immunol. Methods 65,55-63,1983) using 30 min incubation with 100 μg well of 3-[4,5-dimethylthiazol-2-yl]-2,5-diphenyl tetrazolium bromide (MTT, Sigma). After removal of the medium, formazan crystals were taken up with 100 μL of DMSO and absorbance at 540 ni was measured with a Bio-Rad microplate reader (model 450); survival was expressed as % of untreated controls.
# FT-1 cells = test: FT-1 cell photocytotoxicity; type: cell-based, human; conditions: for Photocytotoxicity FT-1, Red: Red light, concentration not given
# [2] = tested on: RBY-79 (indifferently named Y-79) cells; test: RBY-79 (Y79) cell cytotoxicity / photocytotoxicity; conditions: for cytotoxic for Y79 (in words): without light, remark of the inventors
# Text: (§1) Columns HT29 and Y79 (═RBY79), without light, correspond to the cytotoxic activity.
# tumoral cells = test: Antitumoral photodynamic activity in general (remarks on Tables B and C); type: cell-based, human; conditions: under appropriate irradiation
# Text: The main results for antitumoral effects are reported in Table B, showing the rate of photocytotoxicity. The higher the percentage, the higher the antitumnoral or antiviral effect.
# Concerning the antitumoral activity, the compounds obtained by the inventors are active, under appropriate irradiation indicated towards tumoral cells in which these derivatives are able to accumulate.
# L-1210 cells = test: Cytotoxicity L-1210 (no light), cytostatic activity; type: cell-based, human
# Text: Column L1210 corresponds to the cytostatic activity.
# [3] = tested on: RBY-79 (indifferently named Y-79) cells
# Text: as §1
# [4] = read-out: HT 29 IC50 (μM) with 2J/cm^2, irradiation with filter (0% T at 520 nm, 80% T at 590 nm), 3.5 mW/cm^2, 10 min
# [5] = read-out: HT 29 IC50 (μM) without light, without light (cytotoxic activity)
# [6] = read-out: Y79 IC50 (μM) With 2J/cm^2, irradiation with filter (0% T at 520 nm, 80% T at 590 nm), 3.5 mW/cm^2, 10 min
# [7] = read-out: Y79 IC50 (μM) without light, without light (cytotoxic activity)
# [8] = with light, compared with its cytotoxicity
compound,measurement,setting,value
TPC(m-O-β-GluOH)4 [Compound 54],Photocytotoxicity A549,A549,"0, A549, 0%"
same,IC50,[1]; [4],4.4 ± 0.1 µM
same,IC50,[1]; [5],> 15 µM
same,"Photocytotoxicity FT-1, Red",FT-1 cells,20%
same,IC50,[2]; [6],3 ± 1.4 µM
same,IC50,[2]; [7],3.9 ± 0.1 µM
same,cytotoxic for Y79 (in words),[2],cytotoxic
TPP(p-OC3-S-α-MannOH)3 [Compound 24],active when activated by light towards tumoral cells (in words),tumoral cells,active
same,"Photocytotoxicity HT 29, concentration giving 50%",[1]; with light,4.6 µg/mL
same,IC50,[1]; [4],3.2 µM
same,IC50,[1]; [5],3.2 µM
same,phototoxic for HT29 (in words),[1]; [8],less phototoxic
same,cytotoxic for HT29 (in words),[1],cytotoxic
same,"Photocytotoxicity RBY-79, concentration giving 50%","[2]; 50% effect, with light",6.5 µg/mL
same,IC50,[2]; [6],4.7 µM
same,IC50,[2]; [7],7.5 µM
same,phototoxic for Y79 (in words),[2]; [8],less phototoxic
same,cytotoxic for Y79 (in words),[2],cytotoxic
same,"Cytotoxicity L-1210 (no light), concentration giving 50%","L-1210 cells; 50% effect, no light",50% 14 μg/ml
TPP F4(p-S-β-GluOH)3 [Compound 26],active when activated by light towards tumoral cells (in words),tumoral cells,active
same,"Photocytotoxicity HT 29, concentration giving 50%",[1]; with light,50% 2 μg/ml
same,IC50,[1]; [4],1.7 µM
same,IC50,[1]; [5],6.5 µM
same,cytotoxic for HT29 (in words),[1],cytotoxic
same,"Photocytotoxicity RBY-79, concentration giving 50%","[2]; 50% effect, with light",3.3 µg/mL
same,IC50,[2]; [6],2.2 µM
same,IC50,[2]; [7],> 10 µM
same,"Cytotoxicity L-1210 (no light), % at 10 μg/ml","L-1210 cells; 10 μg/ml, no light",20% 10 μg/ml
OC[C@H]1O[C@@H](OCCOc2cccc(-c3c4nc(c(-c5cccc(OCCO[C@@H]6O[C@H](CO)[C@@H](O)[C@H](O)[C@H]6O)c5)c5ccc([nH]5)c(-c5cccc(OCCO[C@@H]6O[C@H](CO)[C@@H](O)[C@H](O)[C@H]6O)c5)c5nc(c(-c6cccc(OCCO[C@@H]7O[C@H](CO)[C@@H](O)[C@H](O)[C@H]7O)c6)c6ccc3[nH]6)CC5)C=C4)c2)[C@H](O)[C@@H](O)[C@@H]1O [Compound 58],"Photocytotoxicity FT-1, Red",FT-1 cells,Red 0%
same,"Cytotoxicity L-1210 (no light), cell marked Red","L-1210 cells; cell prints 'Red', concentration not given","Red, 0, A549%"
"OC[C@H]1O[C@@H](SCc2ccc(-c3c4nc(c(-c5ccc(CS[C@@H]6O[C@H](CO)[C@@H](O)[C@H](O)[C@H]6O)cc5)c5ccc([nH]5)c(-c5ccc(CS[C@@H]6O[C@H](CO)[C@@H](O)[C@H](O)[C@H]6O)cc5)c5nc(c(-c6ccc(CS[C@@H]7O[C@H](CO)[C@@H](O)[C@H](O)[C@H]7O)cc6)c6ccc3[nH]6)C=C5)C=C4)cc2)[C@H](O)[C@@H](O)[C@@H]1O [Compound 65, TPP(p-CH2-S-β-GluOH)4]",IC50,[1]; [4],5.2 µM
same,IC50,[1]; [5],> 10 µM
same,cytotoxic for Y79 (in words),[3],cytotoxic
same,"RBY-79, concentration giving 50% with light or not","[2]; 50% effect, with light or not",50% at 5 μg/ml
same,Y79 IC50 (μM) With 2J/cm^2,"[2]; irradiation with filter (0% T at 520 nm, 80% T at 590 nm), 3.5 mW/cm^2, 10 min",Inactive
same,IC50,[2]; [7],4.7 µM
same,"Cytotoxicity L-1210 (no light), % at 10 μg/ml",L-1210 cells,16%
OC[C@H]1O[C@@H](Oc2cccc(-c3c4nc(c(-c5cccc(O[C@@H]6O[C@H](CO)[C@@H](O)[C@H](O)[C@H]6O)c5)c5ccc([nH]5)c(-c5cccc(O[C@@H]6O[C@H](CO)[C@@H](O)[C@H](O)[C@H]6O)c5)c5nc(c(-c6ccccc6)c6ccc3[nH]6)C=C5)C=C4)c2)[C@H](O)[C@@H](O)[C@@H]1O [Compound 60],Photocytotoxicity A549,A549,"A549, 20%"
same,Photocytotoxicity FT-1,FT-1 cells; concentration and light not given,0%
"OC[C@H]1O[C@H](SCCOCCOc2ccc(-c3c4nc(c(-c5ccc(OCCOCCS[C@H]6O[C@H](CO)[C@@H](O)[C@H](O)[C@@H]6O)cc5)c5ccc([nH]5)c(-c5ccc(OCCOCCS[C@H]6O[C@H](CO)[C@@H](O)[C@H](O)[C@@H]6O)cc5)c5nc(c(-c6ccccc6)c6ccc3[nH]6)C=C5)C=C4)cc2)[C@@H](O)[C@@H](O)[C@@H]1O [Compound 68, TPP(p-O-DEG-S-α-Mann)3]","Photocytotoxicity HT 29, concentration giving 50%",[1]; with light,50% 4 μg/ml
same,IC50,[1]; [4],5.8 ± 3 µM
same,IC50,[1]; [5],> 10 µM
same,"Photocytotoxicity RBY-79, concentration giving 50%","[2]; 50% effect, with light",1 µg/mL
same,IC50,[2]; [6],1 ± 0.5 µM
same,IC50,[2]; [7],6 ± 2 µM
same,"Cytotoxicity L-1210 (no light), % at 10 μg/ml","L-1210 cells; 10 μg/ml, no light",0% 10 μg/ml
OC[C@H]1O[C@H](Sc2c(F)c(F)c(-c3c4nc(c(-c5c(F)c(F)c(F)c(F)c5F)c5ccc([nH]5)c(-c5c(F)c(F)c(F)c(F)c5F)c5nc(c(-c6c(F)c(F)c(F)c(F)c6F)c6ccc3[nH]6)C=C5)C=C4)c(F)c2F)[C@@H](O)[C@@H](O)[C@@H]1O [Compound 30],"Photocytotoxicity RBY-79, % at 2 μg/ml",[3],90% 2 μg/ml

# — US7371742B2, “Porphyrin derivatives for photodynamic therapy” (Institut Curie, priority 2001, dated 2008)
